Source: patent US20200237766A1, “PKM2 ACTIVATORS IN COMBINATION WITH REACTIVE OXYGEN SPECIES FOR TREATMENT OF CANCER” (TOLERO PHARMACEUTICALS, INC., priority 2017, published 2020)
Like-named read-outs stand apart in the source and are kept apart here.

Molecular target: PKM2 (Homo sapiens, UniProt P14618)
Assay: PKM2 activation biochemical assay (AC50 / max. response vs fructose 1,6-bisphosphate)
Conditions: for Max. Resp. (%): % maximum response in a biochemical assay as compared with Fructose 1,6-bisphosphate
[1] = biochemical assay, read-out: PKM2 AC50

Sequence of PKM2 (P14618 whole entry): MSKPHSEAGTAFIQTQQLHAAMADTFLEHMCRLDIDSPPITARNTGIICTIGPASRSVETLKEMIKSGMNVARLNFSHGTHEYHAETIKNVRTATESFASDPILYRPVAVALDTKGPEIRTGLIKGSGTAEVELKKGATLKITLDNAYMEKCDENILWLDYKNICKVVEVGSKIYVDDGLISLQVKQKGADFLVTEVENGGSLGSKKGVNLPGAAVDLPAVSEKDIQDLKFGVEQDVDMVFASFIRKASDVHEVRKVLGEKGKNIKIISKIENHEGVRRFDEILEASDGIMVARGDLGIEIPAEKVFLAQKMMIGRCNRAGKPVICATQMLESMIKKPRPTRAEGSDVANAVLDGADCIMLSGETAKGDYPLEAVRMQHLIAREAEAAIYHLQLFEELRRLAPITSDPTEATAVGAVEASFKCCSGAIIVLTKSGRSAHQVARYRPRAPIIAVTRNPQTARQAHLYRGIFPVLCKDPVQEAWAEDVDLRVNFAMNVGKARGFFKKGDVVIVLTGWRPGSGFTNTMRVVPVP

Row | SMILES | AC50 [1] [nM] | Max. Resp. (%) | AC50 [nM]
1 | Cn1cc(C(=O)c2cccc(Cl)c2Cl)cc1C(N)=O [CA2] | 17000 |  | 
2 | Cn1cc(C(=O)c2cccc(Cl)c2Cl)cc1C(=O)NCNC(=O)c1cc(C(=O)c2cccc(Cl)c2Cl)cn1C [CA4] | 3.2 |  | 
3 | Cn1cc(C(=O)c2cccc(Cl)c2Cl)cc1C(=O)NCCNC(=O)c1cc(C(=O)c2cccc(Cl)c2Cl)cn1C [CA5] | 14 |  | 
4 | O=C(c1cc(C(F)(F)F)n[nH]1)N(Cc1ccc(O)cc1F)CC1CCC1 [Compound 1] |  | 100 | 
5 | N#Cc1cc(C(=O)N(Cc2ccc(O)cc2F)CC2CCC2)[nH]n1 [Compound 2] |  | 39 | 3790
6 | Nc1cc(C(=O)N(Cc2ccc(O)cc2F)CC2CCC2)[nH]n1 [Compound 3] | 43800 | 45 | 
7 | CC(c1ccccc1)N(CC1CCC1)C(=O)c1cc(N)n[nH]1 (stereo not shown) [Compound 4] | 1480 | 52 | 
8 | CC(c1ccccc1)N(CC1CCC1)C(=O)c1cc(C(F)(F)F)n[nH]1 (stereo not shown) [Compound 5] | 4650 | 106 | 
9 | O=C(c1cc(C(F)(F)F)n[nH]1)N(Cc1cccc2[nH]ccc12)CC1CCC1 [Compound 6] |  | 100 | 
10 | O=C(c1cc(C(F)(F)F)n[nH]1)N(Cc1cccc2[nH]c(=O)sc12)CC1CCC1 [Compound 7] | 3450 | 87 | 
11 | O=C(c1cc(Cl)n[nH]1)N(Cc1cccc2[nH]c(=O)sc12)CC1CCC1 [Compound 9] | 15400 | 80 | 
12 | O=C(c1cc(Br)n[nH]1)N(Cc1cccc2[nH]c(=O)sc12)CC1CCC1 [Compound 10] | 2740 | 127 | 
13 | O=C(c1cc(Br)n[nH]1)N(Cc1ccc(O)cc1F)CC1CNC1 [Compound 11] |  | 61 | 10400
14 | O=C(c1cc(C(F)(F)F)n[nH]1)N(Cc1cccc2[nH]ccc12)CC1COC1 [Compound 12] | 3270 | 101 | 
15 | CC(C)(C)CN(Cc1cccc2[nH]ccc12)C(=O)c1cc(C(F)(F)F)n[nH]1 [Compound 13] | 49100 | 33 | 
16 | O=C(c1cc(C(F)(F)F)n[nH]1)N(Cc1cccc2c1CCN2)CC1CCC1 [Compound 14] |  | 81 | 
17 | O=C(c1cc(C(F)(F)F)n[nH]1)N(Cc1ccc(O)cc1F)CC1COC1 [Compound 15] | 150 | 102 | 
18 | CCCC(C)N(Cc1ccccc1)C(=O)c1cc(C(F)(F)F)n[nH]1 (stereo not shown) [Compound 16] | 74800 | 22 | 
19 | CCCCCN(Cc1ccccc1F)C(=O)c1cc(C(F)(F)F)n[nH]1 [Compound 17] | 138 | 83 | 
20 | CCCCCN(Cc1ccccc1)C(=O)c1cc(C(F)(F)F)n[nH]1 [Compound 19] | 920 | 76 | 
21 | O=C(c1cc(C(F)(F)F)n[nH]1)N(Cc1ccccc1F)CC1COC1 [Compound 20] | 12000 | 70 | 
22 | O=C(c1cc(C(F)(F)F)n[nH]1)N(Cc1ccc(O)cc1F)C1CCOCC1 [Compound 21] | > 10000 |  | 
23 | O=C(c1cc(C(F)(F)F)n[nH]1)N(Cc1ccccc1F)C1CCOCC1 [Compound 22] | 1520 | 99 | 

Row | SMILES | AC50 [1] [nM] | Max. Resp. (%) | AC50 [nM]
24 | COCCCN(Cc1ccccc1F)C(=O)c1cc(C(F)(F)F)n[nH]1 [Compound 23] | 7540 | 75 | 
25 | CCOCCN(Cc1ccc(O)cc1F)C(=O)c1cc(C(F)(F)F)n[nH]1 [Compound 24] | 210 | 100 | 
26 | O=C(c1cc(C(F)(F)F)n[nH]1)N(Cc1ccccc1F)c1ncco1 [Compound 25] | 53000 | 35 | 
27 | O=C(c1cc(C(F)(F)F)n[nH]1)N(CCC1CCOC1)Cc1ccccc1F (stereo not shown) [Compound 26] | 377 | 99 | 
28 | O=C(c1cc(C(F)(F)F)n[nH]1)N(Cc1ccccc1Cl)CC1COC1 [Compound 27] |  | 47 | 33000
29 | CCOCCN(Cc1ccccc1Cl)C(=O)c1cc(C(F)(F)F)n[nH]1 [Compound 29] |  | 87 | 
30 | CCOCCN(Cc1ccccc1F)C(=O)c1cc(C(F)(F)F)n[nH]1 [Compound 30] |  | 72 | 
31 | COCCCN(Cc1ccccc1Cl)C(=O)c1cc(C(F)(F)F)n[nH]1 [Compound 31] | 9590 | 82 | 
32 | O=C(c1cc(C(F)(F)F)n[nH]1)N(CCC1CCOCC1)Cc1ccccc1Cl [Compound 32] | 1000 | 107 | 
33 | O=C(c1cc(C(F)(F)F)n[nH]1)N(CCC1CCOC1)Cc1c(Cl)cccc1Cl (stereo not shown) [Compound 33] | 4030 | 81 | 
34 | O=C(c1cc(C(F)(F)F)n[nH]1)N(CCC1CCOC1)Cc1ccc(O)cc1F (stereo not shown) [Compound 34] | 77 | 109 | 
35 | O=C(c1cc(C(F)(F)F)n[nH]1)N(Cc1ccccc1Cl)C1CCOCC1 [Compound 35] |  | 59 | 5080
36 | O=C(c1cc(C(F)(F)F)n[nH]1)N(CCC1CCCOC1)Cc1ccccc1Cl (stereo not shown) [Compound 36] | 1220 | 88 | 
37 | CC(C)OCCN(Cc1ccccc1Cl)C(=O)c1cc(C(F)(F)F)n[nH]1 [Compound 37] | 42000 | 37 | 
38 | CCOCCCN(Cc1ccccc1Cl)C(=O)c1cc(C(F)(F)F)n[nH]1 [Compound 38] | 33000 | 47 | 
39 | O=C(c1cc(C(F)(F)F)n[nH]1)N(CCOC1CCCC1)Cc1ccccc1F [Compound 39] | 47000 | 30 | 
40 | O=C(c1cc(C(F)(F)F)n[nH]1)N(CCC1CCOC1)Cc1c(F)cccc1F (stereo not shown) [Compound 40] |  | 114 | 1170
41 | O=C(c1cc(C(F)(F)F)n[nH]1)N(CCC1CCOCC1)Cc1ccccc1F [Compound 41] | 1260 | 118 | 
42 | CCOCCN(Cc1c(Cl)cccc1Cl)C(=O)c1cc(C(F)(F)F)n[nH]1 [Compound 42] | 8780 | 76 | 
43 | O=C(c1cc(C(F)(F)F)n[nH]1)N(CCC1CCOC1)Cc1ccccc1Cl (stereo not shown) [Compound 43] |  | 110 | 1330
44 | O=C(c1cc(C(F)(F)F)n[nH]1)N(CCC1CCCCO1)Cc1ccccc1Cl (stereo not shown) [Compound 44] | 50000 | 32 | 
45 | O=C(c1cc(C(F)(F)F)n[nH]1)N(Cc1ccccc1F)CC1CCOCC1 [Compound 45] | 25100 | 52 | 
46 | O=C(c1cc(C(F)(F)F)n[nH]1)N(CCC1CCCO1)Cc1ccccc1F (stereo not shown) [Compound 46] | 13400 | 70 | 

Row | SMILES | AC50 [1] [nM] | Max. Resp. (%) | AC50 [nM]
47 | CO[C@H]1CC[C@H](N(Cc2ccccc2F)C(=O)c2cc(C(F)(F)F)n[nH]2)CC1 [Compound 47] | 435 | 89 | 
48 | CO[C@H]1CC[C@H](N(Cc2cccc(F)c2)C(=O)c2cc(C(F)(F)F)n[nH]2)CC1 [Compound 48] | 8580 | 80 | 
49 | CO[C@H]1CC[C@H](N(Cc2c(F)cccc2F)C(=O)c2cc(C(F)(F)F)n[nH]2)CC1 [Compound 49] | 914 | 122 | 
50 | CO[C@H]1CC[C@H](N(Cc2cc(F)ccc2F)C(=O)c2cc(C(F)(F)F)n[nH]2)CC1 [Compound 50] |  | 90 | 1670
51 | CO[C@H]1CC[C@H](N(Cc2cc(F)cc(F)c2)C(=O)c2cc(C(F)(F)F)n[nH]2)CC1 [Compound 51] | 50400 | 31 | 
52 | CO[C@H]1CC[C@H](N(Cc2ccccc2Cl)C(=O)c2cc(C(F)(F)F)n[nH]2)CC1 [Compound 52] | 879 | 100 | 
53 | CC(C)O[C@H]1CC[C@H](N(Cc2ccccc2Cl)C(=O)c2cc(C(F)(F)F)n[nH]2)CC1 [Compound 53] | 2290 | 63 | 
54 | CO[C@H]1CC[C@H](N(Cc2cccc(N)c2)C(=O)c2cc(C(F)(F)F)n[nH]2)CC1 [Compound 54] | 365 | 93 | 
55 | CCO[C@H]1CC[C@H](N(Cc2ccccc2F)C(=O)c2cc(C(F)(F)F)n[nH]2)CC1 [Compound 55] |  | 101 | 469
56 | CO[C@H]1CC[C@H](N(Cc2ncccc2Cl)C(=O)c2cc(C(F)(F)F)n[nH]2)CC1 [Compound 56] |  | 48 | 2580
57 | O=C(c1cc(C(F)(F)F)n[nH]1)N(CCC1CCC2(CC1)OCCO2)Cc1ccccc1F [Compound 59] | 494 | 100 | 
58 | O=C1CCC(CCN(Cc2ccccc2F)C(=O)c2cc(C(F)(F)F)n[nH]2)CC1 [Compound 60] | 101 | 105 | 
59 | O=C(c1cc(C(F)(F)F)n[nH]1)N(CCC1CCS(=O)(=O)C1)Cc1ccccc1Cl (stereo not shown) [Compound 62] |  | 105 | 273
60 | O=C(c1cc(C(F)(F)F)n[nH]1)N(CCC1CCS(=O)(=O)C1)Cc1ccccc1F (stereo not shown) [Compound 63] | 240 | 87 | 
61 | O=C(c1cc(C(F)(F)F)n[nH]1)N(CCC1CCS(=O)(=O)C1)Cc1c(Cl)cccc1Cl (stereo not shown) [Compound 64] | 3780 | 71 | 
62 | O=C(c1cc(C(F)(F)F)n[nH]1)N(CCC1CCS(=O)(=O)C1)Cc1c(F)cccc1F (stereo not shown) [Compound 66] |  | 102 | 375
63 | O=C(c1cc(C(F)(F)F)n[nH]1)N(CCC1CCS(=O)(=O)C1)Cc1cccc(F)c1 (stereo not shown) [Compound 67] |  | 95 | 1630
64 | O=C(c1cc(C(F)(F)F)n[nH]1)N(CCC1CCS(=O)(=O)C1)Cc1cccc(F)c1F (stereo not shown) [Compound 68] | 766 | 103 | 
65 | O=C(c1cc(C(F)(F)F)n[nH]1)N(CCC1CCS(=O)(=O)C1)Cc1cc(F)cc(F)c1 (stereo not shown) [Compound 69] | 1830 | 74 | 
66 | O=C(c1cc(C(F)(F)F)n[nH]1)N(CCC1CCS(=O)(=O)C1)Cc1cc(F)ccc1F (stereo not shown) [Compound 70] | 884 | 91 | 
67 | O=C(c1cc(C(F)(F)F)n[nH]1)N(Cc1ccccc1F)CC1CCS(=O)(=O)CC1 [Compound 71] | 10200 | 71 | 
68 | O=C(c1cc(C(F)(F)F)n[nH]1)N(Cc1ccccc1Cl)CC1CCS(=O)(=O)CC1 [Compound 72] | 19700 | 22 | 
